Measurements: patent US20090317457A1, “ANTI-INFLAMMATORY AND WOUND HEALING EFFECTS OF LYMPHOID THYMOSIN B-4” (Yale University, priority 2002, published 2009)

Columns and labels:
[1] = system: DNFB-induced allergic contact dermatitis of ear skin; assay: DNFB allergic contact dermatitis (ACD) ear swelling assay; assay type: in vivo, FVB mice; conditions: for DNFB Ear Thickness (+/− SE): Un-Methionated Thymosin Experiment; for ear thickness: unit not given
Protocol: Experimental groups of 8-10 female FVB mice, 8-10 weeks of age, were housed in temperature controlled rooms and given food and water ad libitum. Observations and measurements were made by an investigator blinded to the experimental group. Mice were sensitized on day 0 by epicutaneous application to razor-shaved abdominal skin of 25 μl of 0.5% DNFB in a mixture of acetone:olive oil (4:1). Before the challenge with DNFB, mice were injected (i) intraperitoneally with 100 μl of 3.50×10^−5 M thymosin peptide solution (30 minutes before DNFB) and (ii) intradermally with 40 μl of 8.75×10^−5 M peptide solution in both ears (1 min prior to DNFB challenge). On day 5, after measuring baseline ear thickness with an engineer's micrometer, mice were challenged by applying 10 μl of 0.2% DNFB in acetone:olive oil to each side of each ear. Ears were re-measured 6 h., 24 h., and 48 h. after challenge, and data expressed as the response above baseline (i.e., ear thickness 24 h. after challenge minus ear thickness immediately prior to challenge)±1 standard error of the mean (S.E.). For each mouse, increases in right and left ear thickness were averaged. The experiment was repeated twice. Statistics. Groups were compared for differences in the meaning using a one-tailed Student's t test; p<0.05 was considered statistically significant.

[2] = system: λ-carrageenan induced neutrophil mediated inflammation of the footpad; conditions: oxidised form; reference 8; cited from earlier work
[3] = system: λ-carrageenan induced neutrophil mediated inflammation of the footpad; assay: λ-carrageenan-induced footpad inflammation (footpad swelling); assay type: in vivo, BALB/c mice; conditions: for Footpad Thickness (+/− SE): Un-Methionated Thymosin Experiment (A), oxidised peptide
Protocol: Experimental groups of 8-10 female BALB/c mice, 8-10 weeks of age, were housed in temperature controlled rooms and given food and water ad libitum. Observations and measurements were made by an investigator blinded to the experimental group. λ-Carrageenan injection. After measuring the baseline thickness of the hind footpads with a spring-loaded engineer's micrometer, mice were injected subcutaneously in both hind paws with 340 μg of λ-carrageenan in 40 μl. 6 h., 24 h., and 48 h. after the injection of λ-carrageenan, footpads were re-measured and swelling calculated by subtracting the baseline from the experimental measurements. For each mouse, increases in right and left footpad thickness were averaged. Thymosin peptides were injected as previously described [reference 8]: (i) intraperitoneally with 100 μl of 3.50×10^−5 M peptide solution, 30 minutes before footpad injection; (ii) intradermally into the footpad with 40 μl of 8.75×10^−5 M peptide solution and λ-carrageenan at time 0, and (iii) intraperitoneally with 100 μl of 3.50×10^−5 M peptide solution, 6 h. after footpad injection. For each group, the mean increase in footpad thickness was calculated, and compared to other groups using a one-tailed Student's t-test. The experiment was repeated four times. Statistics. Groups were compared for differences in the meaning using a one-tailed Student's t test; p<0.05 was considered statistically significant.

neutrophil chemotaxis = conditions: chemically-synthesized peptide; reference 8; cited from earlier work
[4] = system: human umbilical vein endothelial cells (HUVEC); conditions: references 8, 9; cited from earlier work

With “N-SDKPDMAEIEKFDKSKLKKTETQEKNPL-PSKETIEQEKQAGES-C (SEQ ID NO:1) [UTβ4]” the “suppression of ACD ear swelling response relative to PBS” value ([1]; 6 h) was −4%, the “ear swelling response compared to mice receiving PBS or UTβ4 (FIG. 4A)” value ([1]; 6 h, 24 h and 72 h after challenge) was “no significant suppression” and the “suppression of ACD ear swelling response relative to PBS” value ([1]; 24 h) was 5%. The “suppression of ACD ear swelling response relative to PBS” value ([1]; 72 h) was 2%, the “DNFB Ear Thickness (+/− SE)” value ([1]; forty-eight hours after challenge) was 19.90 ± 1.02 .01 mm and the “DNFB Ear Thickness (+/− SE)” value ([1]; six hours after challenge) was 9.85 ± 0.66 .01 mm. The “DNFB Ear Thickness (+/− SE)” value ([1]; twenty-four hours after challenge) was 22.68 ± 1.33 .01 mm, the ear thickness ([1]; seventy-two hours) was 19.90±1.02 and the ear thickness ([1]; six hours) was 9.85±0.66. The ear thickness ([1]; twenty-four hours) was 22.68±1.33, the “inhibition of λ-carrageenan-induced edema/inflammation in the mouse footpad” value [2] was “active” and the “suppression of footpad inflammation relative to PBS” value ([3]; 6 h) was 12%. For the same substance, the “suppression of footpad inflammation relative to PBS” value ([3]; 24 h) was 30%, the footpad thickness ([3]; 24 h, unit not given) was 0.37±0.03 and the “suppression of footpad inflammation relative to PBS” value ([3]; 48 h) was 31%. For the same substance, the Footpad Thickness (+/− SE) ([3]; forty-eight hours after λ-carrageenan) was 0.41 ± 0.04 mm, the Footpad Thickness (+/− SE) ([3]; six hours after λ-carrageenan, increase over baseline) was 0.53 ± 0.03 mm and the Footpad Thickness (+/− SE) ([3]; twenty-four hours after λ-carrageenan) was 0.37 ± 0.03 mm. The “neutrophil chemotaxis in vitro” value (neutrophil chemotaxis) was “inhibit neutrophil chemotaxis in vitro” and the “closure of scratch wounds in endothelial cell and keratinocyte monolayers in vitro” value [4] was “promote the closure”.
